Assay results reported in PubChem BioAssay AID1918953 (Molecular Pharmacology Branch, DTP, NCI, 2023).
Values joined by “and” are separate entries in the source; they are usually repeats but may differ in a detail not shown here. Equal entries are not always repeated.

Test system: MDA-MB-231 complex spheroid viability
Test: Anticancer human tumor MDA-MB-231/ATCC cell line growth inhibition;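 also: drug exposure lasted 7 days starting on day 3 of spheroid growth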
Details: for viability, T/C: stronger effect = lower value
Excerpt: Multicellular complex tumor spheroid response to LSD1 Inhibitor Iadademstat in combination with a variety of drugs and investigational agents in selected tumor cell lines
The current study was undertaken to assess response to LSD1 inhibitors in combination with standard-of-care drugs and investigational agents in solid tumor complex spheroid models as well as in the K-562 leukemia. Complex spheroids include a stromal component modeled by human endothelial cells (HUVEC) and fibroblasts modeled by human mesenchymal stem cells (MSCs). The concentration ranges selected for each drug and investigational agent were based upon clinically achievable concentrations if the clinical Cmax of the agent was known.
Compounds. The drugs and investigational agents used in this study are listed on Table 1. All of the agents used, including staurosporine (NSC755774) and gemcitabine (NSC613327), were obtained from the Developmental Therapeutics Program, NCI. FDA-approved anticancer drugs are available from the NCI at http://dtp.nci.nih.gov/branches/dscb/oncology_drugset_explanation.html. Drugs and investigational agents were >95% pure by proton nuclear magnetic resonance (NMR) and liquid chromatography/mass spectrometry (LC/MS). Stock solutions were prepared at 400x in DMSO, stored at -70 degrees C, and diluted in fresh medium prior to their use. The final concentration of DMSO in cell culture wells never exceeded 0.25% (v/v). The FDA-approved anticancer drug set is available from the Developmental Therapeutics Program at https://dtp.cancer.gov/organization/dscb/obtaining/available_plates.htm. All drugs and investigational agents were tested over a range starting from a high concentration at or near the clinical Cmax and decreasing in half-log increments. If the clinical Cmax for an agent had not been determined, the highest concentration tested was 10 microM.
Cell Lines. The patient-derived cancer cell (PDC) lines: 292921-168-R-J2-PDC, K24384-001-R-PDC, and 521955-158-R2-J5-PDC pancreatic carcinomas, 556581-035-R-J1 ovarian carcinoma, 324938-238-R-J1-PDC, 855422-203-R-J1-PDC and 883617-216-R-J1-PDC urothelial bladder carcinomas, 743489-274-T-PDC renal cell carcinoma, 138582-R-J1 Merkel cell tumor, K60290-347-R-J1 and K57222-313-R-J1-PDC glioblastomas, 653999-131-R-J2-PDC, LG0703-F948-PDC, and 349418-098-R-PDC non-small cell lung carcinomas, 885512-296-R-J2-PDC, 171881-019-R-J1-PDC breast carcinomas and 186277-243-T-J2-PDC and 233499-124-R-J2-PDC colon carcinomas were obtained from the NCI Patient-Derived Models Repository (PDMR, https://pdmr.cancer.gov). The established cell lines NCI/ADR-RES (RRID:CVCL_14520 and OVCAR-5 (RRID:CVCL_1628) ovarian carcinomas, 786-O (RRID:CVCL_1051) and A498 (RRID:CVCL_A498) renal cell carcinoma, NCI-H211 (ATCC, cat. CRL-5824; RRID:CVCL_1529), NCI-H196 (ATCC, cat. CRL-5823, RRID:CVCL_1509), SW 1271 (ATCC, cat. CRL-2177, RRID:CVCL_1716) and NCI-H1876 (ATCC, cat. CRL-5902, RRID:CVCL_1503) small cell lung carcinomas, MDA-MB-231 (RRID:CVCL_0062) and MDA-MB-468 (RRID:CVCL_0419)breast carcinomas (10-12). Pooled donor human umbilical vein endothelial cells (HUVEC, Lonza, cat. CC-2519) and human mesenchymal stem cells (hMSC, Lonza, cat. PT-2501) were purchased from Lonza (Walkersville, MD).
Cell Culture. All cells were maintained in an incubator at 37 degrees C and 5% CO2 with 95% humidity. The PDC lines were cultured according to standard operating procedures established by the NCI PDMR (https://pdmr.cancer.gov). Briefly all PDCs were thawed and cultured in Matrigel-coated flasks prepared with a working solution of 1X Ham's F-12 nutrient mix, without supplementation (Invitrogen, Waltham, MA, cat. 11765054), 100 U/mL penicillin-streptomycin (Invitrogen, cat. 15140122), and 2.5% Matrigel (Corning Inc., Corning, NY, cat. 354248) for the first three passages. […]

| SMILES | viability, T/C (compound 0.00316 µM) | viability, T/C (compound 0.01 µM) | viability, T/C (compound 0.0316 µM) | viability, T/C (compound 0.1 µM) | IC50 (curve of compound) | viability, T/C (compound 0.316 µM) | viability, T/C (compound 1 µM) | viability, T/C (compound 0.00949 µM) | viability, T/C (compound 0.03 µM) | viability, T/C (compound 0.0949 µM) | viability, T/C (compound 0.3 µM) | also measured |
| --- | --- | --- | --- | --- | --- | --- | --- | --- | --- | --- | --- | --- |
| CC(C)CC(NC(=O)C(Cc1ccccc1)NC(=O)c1cnccn1)B(O)O (stereo unspecified) | 1.86% and 0.16% | 0.35% and 0.17% | 0.31% and 0.14% | 0.31% and 0.17% | 1.09 nM and < 0.316 nM | – | – | – | – | – | – | viability, T/C (compound 0.000316 µM): 104% and 34.9% |
| CC(C)CC(NC(=O)CNC(=O)c1cc(Cl)ccc1Cl)B1OC(=O)CC(CC(=O)O)(C(=O)O)O1 (stereo unspecified) | 85.2% and 70.2% | 39.5% and 14.9% | 6.41% and 1.24% | 0.95% and 0.27% | 7.67 nM and 4.84 nM | – | – | – | – | – | – | viability, T/C (compound 0.000316 µM): 99% and 100%; viability, T/C (compound 0.001 µM): 104% and 105% |
| CC(C)c1c(-c2ccccc2)nc2c(C#N)c[nH]n2c1=O | – | – | 101% and 102% | 94.7% and 104% | > 10000 nM | 97.9% and 117% | 106% and 112% | – | – | – | – | viability, T/C (compound 3.16 µM): 108% and 121%; viability, T/C (compound 10 µM): 102% and 113% |
| CC1(C)CCC(CN2CCN(c3ccc(C(=O)NS(=O)(=O)c4ccc(NCC5CCOCC5)c([N+](=O)[O-])c4)c(Oc4cnc5[nH]ccc5c4)c3)CC2)=C(c2ccc(Cl)cc2)C1 | – | – | 109% | 105% and 107% | 7610 nM and 5060 nM | 100% and 114% | 103% and 123% | – | – | – | – | viability, T/C (compound 3.16 µM): 102% and 83.3% |
| CC1COCCN1c1cc(-c2ccnn2C)c2ccnc(-c3ccn[nH]3)c2n1 (stereo unspecified) | 92.8% and 41% | 80.5% and 30.1% | 51.5% and 19.3% | 35.9% and 18.3% | – | 31.8% and 18.9% | 28.6% and 22.4% | – | – | – | – | – |
| CC1COCCN1c1cc(C2(S(C)(=N)=O)CC2)nc(-c2ccnc3[nH]ccc23)n1 (stereo unspecified) | – | – | 105% and 111% | 98.6% and 111% | 1280 nM and 1530 nM | 79.9% and 109% | 53.7% and 62% | – | – | – | – | viability, T/C (compound 3.16 µM): 36.3% and 31.3%; viability, T/C (compound 10 µM): 28.1% and 24% |
| CCN(c1cc(-c2ccc(CN3CCOCC3)cc2)cc(C(=O)NCc2c(C)cc(C)[nH]c2=O)c1C)C1CCOCC1 | – | – | – | – | – | – | – | 90.6% and 108% | 93.6% and 88.1% | 82.4% and 61.5% | 74.9% and 42.3% | viability, T/C (compound 0.949 µM): 66.3% and 25.8%; viability, T/C (compound 3 µM): 57.7% and 15% |
| CC[C@@]1(O)C(=O)OCc2c1cc1n(c2=O)Cc2cc3c(CN(C)C)c(O)ccc3nc2-1 | 39.1% and 39.5% | 25.3% and 25.9% | 17.1% and 22.8% | 10.3% and 16% | 1.99 nM and 2.01 nM | – | – | – | – | – | – | viability, T/C (compound 0.000316 µM): 89.7% and 88.6%; viability, T/C (compound 0.001 µM): 64.9% and 65.5% |
| CCc1c2c(nc3ccc(O)cc13)-c1cc3c(c(=O)n1C2)COC(=O)[C@]3(O)CC | – | – | – | – | < 0.949 nM | – | – | 7.45% and 15.4% | 9.98% and 5.59% | 5.58% and 0.92% | 2.32% and 0.78% | viability, T/C (compound 0.000949 µM): 13.4% and 18%; viability, T/C (compound 0.003 µM): 8.18% and 14.8% |
| COc1cc(C2c3cc4c(cc3C(OC3OC5COC(C)OC5C(O)C3O)C3COC(=O)C23)OCO4)cc(OC)c1O (stereo unspecified) | – | – | – | – | 108 nM and 30.6 nM | – | – | 96.1% and 79.9% | 76.1% and 47.9% | 49.9% and 32.6% | 35% and 22.9% | viability, T/C (compound 0.949 µM): 13.5% and 10.3%; viability, T/C (compound 3 µM): 6.1% and 8.34% |
| COc1cc(Nc2ncc3c(n2)-c2ccc(Cl)cc2C(c2c(F)cccc2OC)=NC3)ccc1C(=O)O | 78.5% and 52.8% | 60.9% and 55.1% | 56.1% and 50.4% | 57% and 42.6% | 181 nM and 31.7 nM | 50.3% and 38.8% | 41.5% and 23.2% | – | – | – | – | – |
| COc1ccc([C@@H](O)c2cc(-c3ncnc4cc(N5CCOCC5)ccc34)c(F)cc2Cl)nn1 | – | – | 93.7% and 82% | 76.6% and 85.5% | 449 nM and 700 nM | 53.9% and 64.1% | 39.6% and 43.1% | – | – | – | – | viability, T/C (compound 3.16 µM): 27.3% and 22.8%; viability, T/C (compound 10 µM): 23.2% and 13.2% |
| Cn1ncnc1C1c2n[nH]c(=O)c3cc(F)cc(c23)NC1c1ccc(F)cc1 (stereo unspecified) | 84.4% and 94.8% | 85.8% and 78.8% | 78.8% and 65.3% | 74.7% and 72.4% | > 100 nM | – | – | – | – | – | – | viability, T/C (compound 0.000316 µM): 91% and 96.8%; viability, T/C (compound 0.001 µM): 95.8% and 101% |
| NC1CC1c1ccc(-c2cccc(O)c2)cc1 (stereo unspecified) | – | – | – | – | – | 68.1% [middle of 25 runs] | 62.9% [middle of 25 runs] | – | – | – | – | viability, T/C (compound 3.16 µM): 64.5% [middle of 25 runs]; viability, T/C (compound 10 µM): 47.7% [middle of 25 runs] |
| NC1CCC(NC2CC2c2ccccc2)CC1 (stereo unspecified) | – | – | – | 102% [middle of 25 runs] | – | 106% and 102% | 99.7% [middle of 25 runs] | – | – | – | – | viability, T/C (compound 10 µM): 61% [middle of 23 runs]; IC50 (compound alone, run of 01/18/2022): > 10000 nM |
| NS(=O)(=O)OCC1CC(n2ccc3c(NC4CCc5ccccc54)ncnc32)CC1O (stereo unspecified) | – | – | – | – | 230 nM and 79.9 nM | – | – | 140% and 117% | 119% and 91% | 71.6% and 43.9% | 43.7% and 22.5% | viability, T/C (compound 0.949 µM): 37.5% and 26.5%; viability, T/C (compound 3 µM): 34.5% and 26.1% |
| Nc1ccccc1NC(=O)c1ccc(CNC(=O)OCc2cccnc2)cc1 | – | – | – | – | 53.2 nM and 31.4 nM | – | – | 81.5% and 86.7% | 56.5% and 52.2% | 39.4% and 21.1% | 28.1% and 12.2% | viability, T/C (compound 0.949 µM): 15.4% and 4.07%; viability, T/C (compound 3 µM): 3.56% and 0.18% |
| Nc1ccn(C2OC(CO)C(O)C2(F)F)c(=O)n1 (stereo unspecified) | – | – | – | – | < 0.949 nM | – | – | 15.5% and 19.9% | 12.6% and 17.8% | 8.77% and 15.2% | 5.47% and 14% | viability, T/C (compound 0.000949 µM): 20.4% and 39.3%; viability, T/C (compound 0.003 µM): 17.2% and 31% |
| Nc1ncn(C2CC(O)C(CO)O2)c(=O)n1 (stereo unspecified) | 99.5% and 83.9% | 95.3% and 91.9% | 83.2% and 87.7% | 75.1% and 78.5% | > 1000 nM | 64.4% and 69.5% | 53.7% and 56.2% | – | – | – | – | – |
| Nc1ncn(C2CC(O)C(CO)S2)c(=O)n1 (stereo unspecified) | – | – | – | – | 14.8 nM and 8.3 nM | – | – | 61% and 45.8% | 37.2% and 31.3% | 20.2% and 19.9% | 11.1% and 9.34% | viability, T/C (compound 0.000949 µM): 90.3% and 85%; viability, T/C (compound 0.003 µM): 72.3% and 68.7% |
| O=C(C=Cc1cccc(S(=O)(=O)Nc2ccccc2)c1)NO | – | – | – | – | 81.6 nM and 30.6 nM | – | – | 82.2% and 70.1% | 62.3% and 50.3% | 52.9% and 31.3% | 24.5% and 17.3% | viability, T/C (compound 0.949 µM): 13.2% and 0.72% |
| O=C(C=Cn1cnc(-c2cc(C(F)(F)F)cc(C(F)(F)F)c2)n1)NNc1cnccn1 | 61.8% and 35.1% | 32.6% and 31.3% | 11.5% and 11.8% | 9.25% and 3.52% | 5.04 nM and < 3.16 nM | 10.8% and 3.53% | 5.27% and 4.37% | – | – | – | – | – |
| O=C(c1cc(Cc2n[nH]c(=O)c3ccccc23)ccc1F)N1CCN(C(=O)C2CC2)CC1 | – | – | 92.4% and 88.5% | 97.9% and 79.2% | > 10000 nM and 3920 nM | 85.6% and 79.3% | 72.1% and 69.9% | – | – | – | – | viability, T/C (compound 3.16 µM): 68.6% and 53.2%; viability, T/C (compound 10 µM): 56.6% and 32.6% |
